Laboratory results from ChEMBL document CHEMBL1147302, “Isolation and characterization of an antimalarial agent of the neem tree Azadirachta indica” (J Nat Prod, 1989).

Experiments:
Plasmodium falciparum [1] = assay: Antimalarial activity against Plasmodium falciparum after 96 hrs by [3H]hypoxanthine uptake; assay type: functional, organism-based
Plasmodium falciparum [2] = assay: Antimalarial activity against Plasmodium falciparum after 48 hrs by [3H]hypoxanthine uptake; assay type: functional, organism-based

IC50 (Plasmodium falciparum [1]): 300 nM
IC50 (Plasmodium falciparum [2]): 1000 nM
SMILES: CC(=O)O[C@@H]1C[C@H]2C(C)(C)C(=O)C=C[C@]2(C)[C@H]2CC[C@@]3(C)[C@H](c4ccoc4)OC(=O)[C@H]4O[C@]43[C@@]21C [GEDUNIN]
